Several values for one entry are separate records, joined by “and”; a condition that tells them apart may be missing. Identical values can stand only once. Entries after “also recorded” stand apart in the source; their conditions may differ.
Columns and labels:
[1] = system: Sprague-Dawley Crl:CD(SD) rats; details: rat, in vivo;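 note: control rats received saline intraperitoneally, and the organs examined were adrenals, brain, kidneys, liver, spleen and thymus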
Method: (§1) Control animals were treated intraperitoneal with saline.
(§2) Randomization and group allocation: prior to treatment, the animals were assigned to the experimental groups based on their body weight. Mean body weight of each group at randomization was not deviate±20% of the mean population weight. Males and females were randomized separately. For the randomization, a computer program was used.
(§3) The day before autopsy, urinalysis was performed and blood samples were taken for hematology and clinical chemistry examinations.
(§4) On the day of autopsy the animals were anaesthetized with isoflurane, blood was collected for PBMC isolation then subjected to autopsy. Tissues and organs (adrenals, brain, kidneys, liver, spleen and thymus) were weighed and subjected to gross pathological and histopathological examinations.

[2] = system: kidney tissues of treated or untreated rats; assay: Real-time qRT-PCR of signature amplicons, validation stage, labeled and un-labeled samples (Table 23); details: for H31883_DB71_seg13 normalized qRT-PCR result / MUSCYCG1R_DB81_seg19-20 normalized qRT-PCR result / W41270_DB81_seg11 normalized qRT-PCR result: labeled sample, one line per animal; for H31883_DB71_seg13 normalized qRT-PCR expression (Cyclin-G1 (CCNG1) transcript) / MUSCYCG1R_DB81_seg19-20 normalized qRT-PCR expression / W41270_DB81_seg11 normalized qRT-PCR expression (tumor necrosis factor receptor superfamily, member 12a transcript) / AI045075_DB71_seg6 normalized qRT-PCR expression (Interferon stimulated exonuclease 20 (ISG20) transcript) / W64472_DB81_seg2 normalized qRT-PCR expression (Interferon stimulated exonuclease 20 (ISG20) transcript) / W83813_DB81_seg27 normalized qRT-PCR expression: labeled samples; for Label: true label (Normal/Toxic), known renal toxic effect: rat, in vivo
Outline: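 Each of four signature genes measured as wild-type and alternative-splice amplicons by qRT-PCR in treated or untreated rat kidney. Normalization was two-step: housekeeping-gene factor, then inter-plate correction from shared samples on a shuffled control plate; final values rescaled for display.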

[3] = system: Sprague-Dawley Crl:CD(SD) rats; assay: Rat toxicity study, single, 5-day and 28-day treatment (clinical observation, clinical pathology, autopsy, organ weights, histopathology);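 note: control rats received saline intraperitoneally, and the organs examined were adrenals, brain, kidneys, liver, spleen and thymus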
Method: as §1, §2, §3, §4

[4] = day1, female rat kidney, listed as Tob
[5] = day1, male rat kidney, listed as Tob
[6] = day28, female rat kidney, listed as Tob
[7] = day28, male rat kidney, listed as Tob
[8] = day1, kidney of individual male/female rats, listed as Tob
[9] = day5, kidney of individual male/female rats, listed as Tob
[10] = day28, kidney of individual male/female rats, listed as Tob
[11] = day1, kidney of individual male/female rats, listed as ValpA
[12] = day5, kidney of individual male/female rats, listed as ValpA
[13] = day28, kidney of individual male/female rats, listed as ValpA

Q: Which results are given for NC[C@H]1O[C@H](O[C@H]2[C@H](O)[C@@H](O[C@H]3O[C@H](CO)[C@@H](O)[C@H](N)[C@H]3O)[C@H](N)C[C@@H]2N)[C@H](N)C[C@@H]1O [Tobramycin]?
A: Water consumption [1]: Decrease in Tobramycin and Cadmium chloride treated females; H31883_DB71_seg13 normalized qRT-PCR result [2, 4]: 1.153 and 0.799 and 0.982; MUSCYCG1R_DB81_seg19-20 normalized qRT-PCR result [2, 4]: 5.307 and 1.195 and 1.623; W41270_DB81_seg11 normalized qRT-PCR result [2, 4]: 1.5 and 0.73 and 1.166; H31883_DB71_seg13 normalized qRT-PCR result [2, 5]: 1.126 and 0.999 and 1.049; MUSCYCG1R_DB81_seg19-20 normalized qRT-PCR result [2, 5]: 2.04 and 0.825 and 1.223; W41270_DB81_seg11 normalized qRT-PCR result [2, 5]: 1.43 and 1.083 and 1.619; H31883_DB71_seg13 normalized qRT-PCR result [2, 6]: 0.876 and 0.621 and 0.987; MUSCYCG1R_DB81_seg19-20 normalized qRT-PCR result [2, 6]: 0.959 and 1.021 and 1.478; W41270_DB81_seg11 normalized qRT-PCR result [2, 6]: 1.073 and 1.144 and 1.118; H31883_DB71_seg13 normalized qRT-PCR result [2, 7]: 0.39 and 0.832 and 0.803; MUSCYCG1R_DB81_seg19-20 normalized qRT-PCR result [2, 7]: 0.679 and 1.273 and 1.397; W41270_DB81_seg11 normalized qRT-PCR result [2, 7]: 0.61 and 1.379 and 1.281; H31883_DB71_seg13 normalized qRT-PCR expression (Cyclin-G1 (CCNG1) transcript) [2, 8]: 1.137 and 1.104 and 1.132 and 0.912 and 0.563 and 0.661; MUSCYCG1R_DB81_seg19-20 normalized qRT-PCR expression [2, 8]: 1.582 and 0.967 and 1.506 and 1.173 and 1.025 and 0.987; W41270_DB81_seg11 normalized qRT-PCR expression (tumor necrosis factor receptor superfamily, member 12a transcript) [2, 8]: 1.601 and 1.084 and 0.577 and 0.949 and 0.809 and 0.983; AI045075_DB71_seg6 normalized qRT-PCR expression (Interferon stimulated exonuclease 20 (ISG20) transcript) [2, 9]: 1.327 and 1.644 and 1.614 and 1.367 and 2.402 and 1.224; H31883_DB71_seg13 normalized qRT-PCR expression (Cyclin-G1 (CCNG1) transcript) [2, 9]: 0.863 and 0.855 and 1.237 and 0.988 and 0.858 and 1.646; MUSCYCG1R_DB81_seg19-20 normalized qRT-PCR expression [2, 9]: 0.99 and 1.589 and 0.968 and 1.6 and 1.424 and 2.062; W41270_DB81_seg11 normalized qRT-PCR expression (tumor necrosis factor receptor superfamily, member 12a transcript) [2, 9]: 0.559 and 2.483 and 0.802 and 1.529 and 2.317 and 0.946; W64472_DB81_seg2 normalized qRT-PCR expression (Interferon stimulated exonuclease 20 (ISG20) transcript) [2, 9]: 1.193 and 1.871 and 1.449 and 1.063 and 1.785 and 1.447; W83813_DB81_seg27 normalized qRT-PCR expression [2, 9]: 0.589 and 1.262 and 0.892 and 1.058 and 0.942 and 1.117; H31883_DB71_seg13 normalized qRT-PCR expression (Cyclin-G1 (CCNG1) transcript) [2, 10]: 0.624 and 0.324 and 0.69 and 0.528 and 0.551 and 0.807; MUSCYCG1R_DB81_seg19-20 normalized qRT-PCR expression [2, 10]: 0.713 and 0.76 and 1.087 and 0.889 and 1.268 and 0.903; W41270_DB81_seg11 normalized qRT-PCR expression (tumor necrosis factor receptor superfamily, member 12a transcript) [2, 10]: 1.189 and 1.217 and 1.099 and 1.267 and 1.373 and 1.798; Label: true label (Normal/Toxic), known renal toxic effect [2]: Toxic; Autopsy findings ([3]; 5-day treatment): No effect; Autopsy findings ([3]; 28-day treatment, male and female rats): Enlarged, discolored kidneys; also recorded: Alterations were found in the kidneys; also recorded: ♂: ↑↑, pale

Q: For CCCC(CCC)C(=O)O [Valproic acid], which Clinical pathology [1] is on record?
A: Slightly lower total protein and Albumin values were found in males

Q: And the “Histopathology / renal damage” value [1]?
A: No renal damage was found

Q: What about the Water consumption [1] of the same molecule?
A: Increase in Valproic acid treated females

Q: What about the “Water consumption, males” value [1] of the same molecule?
A: Sight decrease during the last week

Q: What about the “AI045075_DB71_seg6 normalized qRT-PCR expression (Interferon stimulated exonuclease 20 (ISG20) transcript)” value [2, 11] of the same molecule?
A: 1.006 and 1.436 and 2.189 and 0.983 and 1.098 and 1.522

Q: And the “H31883_DB71_seg13 normalized qRT-PCR expression (Cyclin-G1 (CCNG1) transcript)” value [2, 11]?
A: 1.488 and 1.506 and 0.999 and 0.721 and 1.041

Q: And the “MUSCYCG1R_DB81_seg19-20 normalized qRT-PCR expression” value [2, 11]?
A: 2.289 and 1.581 and 1.842 and 1.929 and 0.637 and 0.9

Q: And the “W41270_DB81_seg11 normalized qRT-PCR expression (tumor necrosis factor receptor superfamily, member 12a transcript)” value [2, 11]?
A: 1.134 and 0.939 and 1.405 and 1.225 and 0.547 and 1.544

Q: And the “W64472_DB81_seg2 normalized qRT-PCR expression (Interferon stimulated exonuclease 20 (ISG20) transcript)” value [2, 11]?
A: 1.082 and 1.123 and 1.887 and 0.995 and 1.092 and 1.596

Q: And the “W83813_DB81_seg27 normalized qRT-PCR expression” value [2, 11]?
A: 1.179 and 0.912 and 1.495 and 1.13 and 0.818 and 1.366

Q: And the “AI045075_DB71_seg6 normalized qRT-PCR expression (Interferon stimulated exonuclease 20 (ISG20) transcript)” value [2, 12]?
A: 1.017 and 1.145 and 0.997 and 0.883 and 1.052 and 0.877

Q: What about the “H31883_DB71_seg13 normalized qRT-PCR expression (Cyclin-G1 (CCNG1) transcript)” value [2, 12] of the same molecule?
A: 0.846 and 0.85 and 0.975 and 0.791 and 0.694 and 1.082

Q: What about the “MUSCYCG1R_DB81_seg19-20 normalized qRT-PCR expression” value [2, 12] of the same molecule?
A: 1.019 and 1.509 and 1.372 and 0.94 and 1.425 and 1.585

Q: And the “W41270_DB81_seg11 normalized qRT-PCR expression (tumor necrosis factor receptor superfamily, member 12a transcript)” value [2, 12]?
A: 0.631 and 1.428 and 1.002 and 0.617 and 0.997

Q: What about the “W64472_DB81_seg2 normalized qRT-PCR expression (Interferon stimulated exonuclease 20 (ISG20) transcript)” value [2, 12] of the same molecule?
A: 0.92 and 1.226 and 1.169 and 0.702 and 0.812 and 0.894

Q: What about the “W83813_DB81_seg27 normalized qRT-PCR expression” value [2, 12] of the same molecule?
A: 0.778 and 1.17 and 0.876 and 0.926 and 1.146 and 0.992

Q: And the “AI045075_DB71_seg6 normalized qRT-PCR expression (Interferon stimulated exonuclease 20 (ISG20) transcript)” value [2, 13]?
A: 0.696 and 0.906 and 0.669 and 0.822 and 0.77 and 0.719

Q: What about the “H31883_DB71_seg13 normalized qRT-PCR expression (Cyclin-G1 (CCNG1) transcript)” value [2, 13] of the same molecule?
A: 0.732 and 0.774 and 0.713 and 0.872 and 0.57 and 0.979

Q: And the “MUSCYCG1R_DB81_seg19-20 normalized qRT-PCR expression” value [2, 13]?
A: 0.588 and 1.731 and 0.589 and 1.171 and 1.037 and 0.52

Q: What about the “W41270_DB81_seg11 normalized qRT-PCR expression (tumor necrosis factor receptor superfamily, member 12a transcript)” value [2, 13] of the same molecule?
A: 0.543 and 0.95 and 0.459 and 1.044 and 0.587 and 1.011

Q: What about the “W64472_DB81_seg2 normalized qRT-PCR expression (Interferon stimulated exonuclease 20 (ISG20) transcript)” value [2, 13] of the same molecule?
A: 1.085 and 0.788 and 0.965 and 1.51 and 0.478 and 0.991

Q: And the “W83813_DB81_seg27 normalized qRT-PCR expression” value [2, 13]?
A: 0.493 and 1.254 and 0.46 and 0.875 and 0.761 and 1.208

Q: And the “Label: true label (Normal/Toxic), known renal toxic effect” value [2]?
A: Normal
